Test results taken from ChEMBL document CHEMBL2424555, “Discovery of novel 4-anilinoquinazoline derivatives as potent inhibitors of epidermal growth factor receptor with antitumor activity” (Bioorg Med Chem, 2013).
Activity calls are given as the source filed them. No cut-off for these calls is given here.

Assays:
HepG2 = assay: Antiproliferative activity against human HepG2 cells after 48 hrs by MTT assay; type: functional, cell-based; settings: HepG2, 48 h
A549 [1] = assay: Antiproliferative activity against human A549 cells after 48 hrs by MTT assay; type: functional, cell-based; settings: A549, 48 h
[2] = target: Epidermal growth factor receptor (Homo sapiens, UniProt P00533); assay: Inhibition of recombinant EGFR kinase cytoplasmic domain (unknown origin) expressed in baculovirus expression vector-infected insect sf9 cells assessed as level of autophosphorylation after 10 mins by DELFIA/time-resolved fluorometry
A549 [3] = assay: Induction of apoptosis in human A549 cells assessed as nuclear convolution and budding off into several fragments after 24 hrs by Hoechst 33258 staining-based fluorescence microscopy relative to control; type: functional, cell-based
A549 [4] = assay: Induction of apoptosis in human A549 cells assessed as nuclear convolution and budding off into several fragments at 5 to 20 uM after 24 hrs by Hoechst 33258 staining-based fluorescence microscopy relative to control; type: functional, cell-based
A549 [5] = assay: Induction of apoptosis in human A549 cells assessed as nuclear condensation at 5 to 20 uM after 24 hrs by Hoechst 33258 staining-based fluorescence microscopy relative to control; type: functional, cell-based
A549 [6] = assay: Induction of apoptosis in human A549 cells assessed as nuclear fragmentation after 24 hrs by Hoechst 33258 staining-based fluorescence microscopy relative to control; type: functional, cell-based
A549 [7] = assay: Induction of apoptosis in human A549 cells assessed as nuclear fragmentation at 5 to 20 uM after 24 hrs by Hoechst 33258 staining-based fluorescence microscopy relative to control; type: functional, cell-based
A549 [8] = assay: Induction of apoptosis in human A549 cells assessed as nuclear condensation after 24 hrs by Hoechst 33258 staining-based fluorescence microscopy relative to control; type: functional, cell-based

Epidermal growth factor receptor, sequence (P00533 whole entry, the tested form may be a part): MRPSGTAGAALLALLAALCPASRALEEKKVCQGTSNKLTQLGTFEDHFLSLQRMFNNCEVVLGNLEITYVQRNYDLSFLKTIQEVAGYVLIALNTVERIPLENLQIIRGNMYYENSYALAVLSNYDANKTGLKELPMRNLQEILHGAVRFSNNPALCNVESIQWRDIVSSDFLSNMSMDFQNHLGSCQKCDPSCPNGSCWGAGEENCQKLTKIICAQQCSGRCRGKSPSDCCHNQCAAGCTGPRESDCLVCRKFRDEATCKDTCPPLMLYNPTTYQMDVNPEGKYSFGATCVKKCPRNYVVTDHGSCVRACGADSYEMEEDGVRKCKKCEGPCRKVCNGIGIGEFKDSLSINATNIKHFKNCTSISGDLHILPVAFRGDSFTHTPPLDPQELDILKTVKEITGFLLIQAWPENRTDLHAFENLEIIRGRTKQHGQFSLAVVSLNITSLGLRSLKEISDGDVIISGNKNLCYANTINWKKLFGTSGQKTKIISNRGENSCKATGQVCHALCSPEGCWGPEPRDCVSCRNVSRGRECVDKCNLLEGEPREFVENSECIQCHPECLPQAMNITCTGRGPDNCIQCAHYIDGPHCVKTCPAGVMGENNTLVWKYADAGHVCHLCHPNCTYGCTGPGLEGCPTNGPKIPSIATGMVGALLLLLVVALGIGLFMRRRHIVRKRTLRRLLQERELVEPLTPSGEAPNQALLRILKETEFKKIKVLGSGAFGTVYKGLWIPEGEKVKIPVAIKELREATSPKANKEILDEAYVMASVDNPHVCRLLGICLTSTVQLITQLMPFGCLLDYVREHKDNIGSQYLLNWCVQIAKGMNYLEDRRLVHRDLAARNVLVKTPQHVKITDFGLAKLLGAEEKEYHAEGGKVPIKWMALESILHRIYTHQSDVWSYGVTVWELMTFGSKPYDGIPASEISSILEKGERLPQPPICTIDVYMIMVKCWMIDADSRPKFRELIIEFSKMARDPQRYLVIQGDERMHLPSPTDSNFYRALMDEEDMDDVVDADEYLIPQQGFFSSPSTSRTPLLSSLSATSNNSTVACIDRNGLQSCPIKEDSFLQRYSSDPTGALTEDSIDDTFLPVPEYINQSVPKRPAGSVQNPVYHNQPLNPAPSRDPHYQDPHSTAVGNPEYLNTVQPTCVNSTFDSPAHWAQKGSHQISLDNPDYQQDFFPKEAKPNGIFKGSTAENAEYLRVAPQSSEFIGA

IC50 (HepG2)	IC50 (A549 [1])	SMILES	IC50 [2]	further results
5.26 µM	2.33 µM	Clc1cccc(Nc2ncnc3ccc(NCc4c[nH]c5ccccc45)cc23)c1		
3.63 µM	1.06 µM	Cc1cccc(CNc2ccc3ncnc(Nc4cccc(Cl)c4)c3c2)n1		
10.7 µM	4.16 µM	O=C(/C=C/c1cccc(Br)n1)Nc1ccc2ncnc(Nc3cccc(Cl)c3)c2c1		
7.02 µM	3.67 µM	O=C(/C=C/c1c[nH]c2ccccc12)Nc1ccc2ncnc(Nc3cccc(Cl)c3)c2c1		
4.14 µM	2.67 µM	Clc1cccc(Nc2ncnc3ccc(NCc4cccnc4)cc23)c1		
5.65 µM	1.71 µM	Clc1cccc(Nc2ncnc3ccc(NCc4ncc5ccccc5n4)cc23)c1		
7.79 µM	3.35 µM	O=C(/C=C/c1ncc2ccccc2n1)Nc1ccc2ncnc(Nc3cccc(Cl)c3)c2c1		
4.82 µM	2.16 µM	Cc1cccc(/C=C/C(=O)Nc2ccc3ncnc(Nc4cccc(Cl)c4)c3c2)n1		
7.85 µM	4.01 µM	CCCCNc1ccc2ncnc(Nc3cccc(Cl)c3)c2c1		

SMILES	IC50 (HepG2)	IC50 (A549 [1])	IC50 [2]	further results
O=C(/C=C/c1cccs1)Nc1ccc2ncnc(Nc3cccc(Cl)c3)c2c1	10.4 µM	9.31 µM	8.8 µM	
Clc1cccc(Nc2ncnc3ccc(NCc4cccs4)cc23)c1	3.58 µM	2.08 µM	3.4 µM	
CSCCCNc1ccc2ncnc(Nc3cccc(Cl)c3)c2c1	8.92 µM	3.82 µM	5.1 µM	
Clc1cccc(Nc2ncnc3ccc(NCc4cccc(Br)n4)cc23)c1	3.87 µM	2.95 µM	4.1 µM	
O=C(/C=C/c1ccc(Br)s1)Nc1ccc2ncnc(Nc3cccc(Cl)c3)c2c1	8.85 µM	1.58 µM	2.4 µM	
O=C(/C=C/c1cccnc1)Nc1ccc2ncnc(Nc3cccc(Cl)c3)c2c1	9.12 µM	4.32 µM	4.7 µM	
O=C(/C=C/c1cccnc1Cl)Nc1ccc2ncnc(Nc3cccc(Cl)c3)c2c1	4.42 µM	2.92 µM	3.6 µM	
Clc1cccc(Nc2ncnc3ccc(NCc4ccc(Br)s4)cc23)c1	3.11 µM	0.82 µM	1.5 µM	Activity (A549 [3]): Dose-dependent effect; Activity (A549 [4]): Active; Activity (A549 [5]): Active; Activity (A549 [6]): Dose-dependent effect; Activity (A549 [7]): Active; Activity (A549 [8]): Dose-dependent effect
